US20250000835A1, “SYNERGIES OF 1- BETA-CARYOPHYLLENE, CANNABIDIOL AND TRIBUTYRIN; 2- RETINYL PALMITATE, BETA-CARYOPHYLLENE AND CANNABIDIOL; 3- RETINYL PALMITATE AND BETA-CARYOPHYLLENE IN CONTROLING INFLAMMATION, METABOLIC HEALTH, INSULIN SENSITIVITY/ GLYCEMIC - GLUCOSE UPTAKE & MANAGEMENT, AND FATTY LIVER/ NAFLD” (FLG Sciences, LLC, priority 2022, published 2025)

Experiments:
Type in all cases: cell-based
phosphorylated p65/NF-κB = assay: Inflammatory signaling (phosphorylated NF-kB) by Western blotting, C2C12 muscle cells; details: vs DMSO control
Procedure: (§1) There were two different treatment experiments including: Cells treated with compounds 1-5 above for 3 hours; Cells treated with compounds 1-5 above for 12 hours with a concomitant TNF-alpha treatment (15 ng/mL); Cell treatments were performed using C2C12 myotubes (muscle cells), and AML-12 cells (liver cells).
(§2) There are also combination formulations, where the following combination formulations were tested: 6) Control or “vehicle” (DMSO only); 7) Vitamin A, or “VitA” (1.2 μM)+Beta-caryophyllene (100 ng/mL)+Tributyrin (10 μM); 8) Vitamin A, or “VitA” (1.2 μM)+Beta-caryophyllene (100 ng/mL)+CBD (95 ng/ml); 9) Beta-caryophyllene (100 ng/mL)+CBD (95 ng/mL)+Tributyrin (10 μM); 10) Vitamin A, or “VitA” (1.2 μM)+Beta-caryophyllene (100 ng/mL).
(§3) As with single ingredients, two different treatment experiments occurred with these combos including: Cells treated with compounds 1-5 above for 3 hours. Cells treated with compounds 1-5 above for 12 hours with a concomitant TNF-alpha treatment (15 ng/ml)
(§4) All cells were grown to confluence using cell-specific media and additives.
(§5) The day of treatment, culture media was spiked with the appropriate ingredients (these are termed “treatment media”)
(§6) After either the 3-h or 12-h treatments described above, treatment media was removed, cells were rinsed with 1× phosphate-buffered saline, and general cell lysis buffer (Tris-based with detergent) was used to lyse cells
(§7) Cells were scraped off the plate with a rubber policeman in the lysis buffer, the slurry was placed in 1.7 mL tubes, and lysates were frozen at −80° C. until the respective assays discussed below.
(§8) There are n=5-6 replicates per treatment condition.
SOD2, SOD1, phosphorylated p65/NF-κB, pro-caspase 1, and NLRP3 were assayed using Western blotting methods.

PPARγ [1] = biological target: T1, PPARγ (Mus musculus, UniProt P37238); assay: PPARγ DNA binding activity, AML-12 liver cells; details: vs DMSO control
T1 construct: endogenous in cells; host or cells: C2C12 myotubes (muscle cells)
T1 sequence (P37238 1-505): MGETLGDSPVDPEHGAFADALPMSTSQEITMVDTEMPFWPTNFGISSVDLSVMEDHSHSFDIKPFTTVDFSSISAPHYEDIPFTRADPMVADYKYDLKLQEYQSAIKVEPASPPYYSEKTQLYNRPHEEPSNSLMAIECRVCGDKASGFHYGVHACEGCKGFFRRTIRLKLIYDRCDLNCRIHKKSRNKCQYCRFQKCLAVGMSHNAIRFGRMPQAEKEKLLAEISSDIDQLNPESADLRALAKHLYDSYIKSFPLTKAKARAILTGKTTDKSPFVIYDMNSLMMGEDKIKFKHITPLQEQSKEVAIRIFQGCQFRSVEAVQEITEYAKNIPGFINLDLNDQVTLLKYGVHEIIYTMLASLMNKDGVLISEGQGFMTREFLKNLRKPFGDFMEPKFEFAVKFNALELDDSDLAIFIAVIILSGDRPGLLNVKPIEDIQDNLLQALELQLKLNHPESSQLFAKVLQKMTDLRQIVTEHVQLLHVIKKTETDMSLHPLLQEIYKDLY
Procedure: as §1, §2, §3, §4, §5, §6, §7, §8
(§9) PPARγ DNA binding activity was assessed using a plate that was pre-coated with a PPAR-gamma consensus binding sequence. Thereafter, antibody-based methods were used to assess the amount of bound transcription factor, and data were normalized to total protein loaded in the assay.

AML-12 liver cells [2] = assay: Cellular glucose levels, colorimetric glucose oxidase assay, AML-12 liver cells; details: 12 h treatment with TNF-alpha (15 ng/mL), vs DMSO control
Procedure: as §1, §2, §3, §4
(§10) The day of treatment, culture media was spiked with the appropriate ingredients (these are termed “treatment media”) […]

[3] = tested on: C2C12 myotubes (muscle cells); assay: Cellular glucose levels, colorimetric glucose oxidase assay, C2C12 muscle cells; details: 12 h treatment with TNF-alpha (15 ng/mL), vs DMSO control
Procedure: as §1, §2, §3, §4, §10

PPARγ [4] = biological target: T1, PPARγ; assay: PPARγ DNA binding activity, C2C12 muscle cells; details: vs DMSO control
Procedure: as §1, §2, §3, §4, §5, §6, §7, §8, §9

SOD2 = SOD2 protein levels by Western blotting, C2C12 muscle cells; details: 3 h and 12 h with TNF-alpha, treatment not told apart in text, vs DMSO control
Procedure: as §1, §2, §3, §4, §10

AML-12 liver cells [5] = assay: Cellular antioxidant (AOx) capacity, Cu2+ ion conversion assay, AML-12 liver cells; details: 3 h treatment, vs DMSO control, CBD 95 ng/ml, VitA 1.2 μM, tributyrin 10 μM, beta-caryophyllene 100 ng/ml
Procedure: as §1, §2, §3, §4, §10
(§11) Total antioxidant capacity was assessed using a Cu2+ ion is conversion assay.

[6] = tested on: C2C12 myotubes (muscle cells); assay: Cellular antioxidant (AOx) capacity, Cu2+ ion conversion assay, C2C12 muscle cells; details: vs DMSO control
Procedure: as §1, §2, §3, §4, §10, §11

[7] = 12 h treatment with TNF-alpha (15 ng/mL)

C=C1CC/C=C(\C)CC[C@@H]2[C@@H]1CC2(C)C [BCP, beta-caryophyllene]
NF-kB phosphorylation vs control (phosphorylated p65/NF-κB; [7]): significant values in reducing NF-kB phosphorylation | PPARγ DNA binding activity vs control (PPARγ [1]; 3 h treatment): significance values greater than control group

CCCC(=O)OCC(COC(=O)CCC)OC(=O)CCC [tributyrin, Tributyrin]
NF-kB phosphorylation vs control (phosphorylated p65/NF-κB; [7]): significant values in reducing NF-kB phosphorylation | Cellular glucose levels vs control (AML-12 liver cells [2]): increases cell glucose | Cellular glucose levels vs control [3]: increases cell glucose | PPARγ DNA binding activity vs control (PPARγ [4]; [7]): values of greater significance than the control | PPARγ DNA binding activity vs control (PPARγ [1]; 3 h treatment): significance values greater than control group | PPARγ DNA binding activity vs control (PPARγ [1]; [7]): significance value greater than control group | SOD2 protein levels vs control (SOD2): significance value less the control

CCCCCCCCCCCCCCCC(=O)OC/C=C(C)/C=C/C=C(C)/C=C/C1=C(C)CCCC1(C)C [vitamin A, Retinyl palmitate]
Cellular AOx capacity vs control (AML-12 liver cells [5]): showed an antioxidant capacity | PPARγ DNA binding activity vs control (PPARγ [4]; 3 h treatment): significance value greater than control group | PPARγ DNA binding activity vs control (PPARγ [1]; 3 h treatment): significance values greater than control group | Cellular AOx capacity vs control ([6]; 3 h treatment, CBD 95 ng/ml, VitA 1.2 μM, tributyrin 10 μM, beta-caryophyllene 100 ng/ml): expressed significance values

cannabidiol [CBD]
NF-kB phosphorylation vs control (phosphorylated p65/NF-κB; 3 h treatment): the only one with significant value among the ingredients | Cellular AOx capacity vs control (AML-12 liver cells [5]): expressed results with significance value | PPARγ DNA binding activity vs control (PPARγ [4]; [7]): values of greater significance than the control | SOD2 protein levels vs control (SOD2): significance value less the control | Cellular AOx capacity vs control [6, 7]: expressed significance value
